Assay results: PMC2951742 (ChemMedChem, 2010)
Read-outs that look alike come from different tables or passages of the source.

Assays:
animals = experiment: Adverse side effects in animals; conditions: in vivo
hERG = hERG (Homo sapiens, UniProt Q12809); experiment: hERG assay; conditions: for hERG inhibition: result in words
[1] = Microsomal stability, human microsomes; type: in vitro ADME; conditions: 1h assay
[2] = system: PCP-disrupted PPI in mice; experiment: Normalization of PCP-disrupted prepulse inhibition; type: in vivo; conditions: 6 mg/kg PCP ip
[3] = Microsomal stability, rat microsomes; type: in vitro ADME; conditions: 1h assay
CYP2D6 = CYP2D6 (Homo sapiens, UniProt P10635); experiment: Recombinant CYP inhibition test, CYP2D6; type: in vitro ADME; conditions: at 10 μM
Chain of CYP2D6 (P10635 whole entry): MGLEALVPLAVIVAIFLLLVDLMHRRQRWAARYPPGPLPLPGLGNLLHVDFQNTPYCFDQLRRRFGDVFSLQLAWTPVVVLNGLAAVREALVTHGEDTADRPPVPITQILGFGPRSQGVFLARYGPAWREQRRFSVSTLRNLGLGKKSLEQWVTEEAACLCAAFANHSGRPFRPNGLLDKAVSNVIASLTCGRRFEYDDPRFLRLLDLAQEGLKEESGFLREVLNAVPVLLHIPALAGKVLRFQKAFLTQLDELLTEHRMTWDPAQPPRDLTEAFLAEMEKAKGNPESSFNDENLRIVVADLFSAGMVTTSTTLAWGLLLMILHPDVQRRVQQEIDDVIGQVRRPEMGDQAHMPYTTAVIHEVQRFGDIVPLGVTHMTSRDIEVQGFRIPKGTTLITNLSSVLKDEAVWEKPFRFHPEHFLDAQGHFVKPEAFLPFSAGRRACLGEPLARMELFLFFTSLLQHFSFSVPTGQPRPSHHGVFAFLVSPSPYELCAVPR

CYP2C9 = CYP2C9 (Homo sapiens, UniProt P11712); experiment: Recombinant CYP inhibition test, CYP2C9; type: in vitro ADME; conditions: at 10 μM
Chain of CYP2C9 (P11712 whole entry): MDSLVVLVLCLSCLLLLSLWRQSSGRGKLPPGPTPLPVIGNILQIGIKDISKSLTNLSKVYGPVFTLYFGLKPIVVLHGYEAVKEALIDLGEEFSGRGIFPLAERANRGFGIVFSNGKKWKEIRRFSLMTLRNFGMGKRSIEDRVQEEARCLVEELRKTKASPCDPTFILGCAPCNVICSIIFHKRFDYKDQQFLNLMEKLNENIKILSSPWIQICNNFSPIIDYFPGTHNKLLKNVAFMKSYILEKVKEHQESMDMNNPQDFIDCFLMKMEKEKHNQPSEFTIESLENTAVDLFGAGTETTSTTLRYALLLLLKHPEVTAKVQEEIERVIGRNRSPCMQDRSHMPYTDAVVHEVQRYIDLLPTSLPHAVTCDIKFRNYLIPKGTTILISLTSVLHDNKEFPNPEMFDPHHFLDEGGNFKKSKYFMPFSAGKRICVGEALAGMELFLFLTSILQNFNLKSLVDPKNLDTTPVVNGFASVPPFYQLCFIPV

CYP3A4 = CYP3A4 (Homo sapiens, UniProt P08684); experiment: Recombinant CYP inhibition test, CYP3A4; type: in vitro ADME; conditions: at 10 μM
Chain of CYP3A4 (P08684 whole entry): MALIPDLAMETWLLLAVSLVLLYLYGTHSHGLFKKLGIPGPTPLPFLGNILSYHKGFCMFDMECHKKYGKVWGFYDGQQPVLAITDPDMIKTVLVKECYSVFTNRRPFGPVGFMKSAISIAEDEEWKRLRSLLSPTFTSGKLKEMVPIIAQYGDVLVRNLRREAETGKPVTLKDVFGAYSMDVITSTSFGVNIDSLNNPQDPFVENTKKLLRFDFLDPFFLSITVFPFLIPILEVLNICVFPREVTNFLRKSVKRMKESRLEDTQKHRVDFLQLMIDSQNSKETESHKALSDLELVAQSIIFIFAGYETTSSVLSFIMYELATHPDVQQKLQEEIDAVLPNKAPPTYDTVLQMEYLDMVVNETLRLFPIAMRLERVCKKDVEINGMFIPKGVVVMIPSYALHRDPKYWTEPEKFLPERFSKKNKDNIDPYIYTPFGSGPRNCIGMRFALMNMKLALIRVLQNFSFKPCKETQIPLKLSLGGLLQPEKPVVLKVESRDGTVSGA

[4] = system: PCP-disrupted PPI in mice; conditions: identical PPI testing paradigm, earlier work; cited from earlier work
human 5-HT2B receptor = human 5-HT2B receptor (Homo sapiens, UniProt P41595); experiment: Calcium flux; type: cell-based; conditions: for 5-HT2B %MAX ± SEM: percent of maximal activation by 5-HT, activation at 10 μM for compounds without EC50 value
Chain of human 5-HT2B receptor (P41595 whole entry): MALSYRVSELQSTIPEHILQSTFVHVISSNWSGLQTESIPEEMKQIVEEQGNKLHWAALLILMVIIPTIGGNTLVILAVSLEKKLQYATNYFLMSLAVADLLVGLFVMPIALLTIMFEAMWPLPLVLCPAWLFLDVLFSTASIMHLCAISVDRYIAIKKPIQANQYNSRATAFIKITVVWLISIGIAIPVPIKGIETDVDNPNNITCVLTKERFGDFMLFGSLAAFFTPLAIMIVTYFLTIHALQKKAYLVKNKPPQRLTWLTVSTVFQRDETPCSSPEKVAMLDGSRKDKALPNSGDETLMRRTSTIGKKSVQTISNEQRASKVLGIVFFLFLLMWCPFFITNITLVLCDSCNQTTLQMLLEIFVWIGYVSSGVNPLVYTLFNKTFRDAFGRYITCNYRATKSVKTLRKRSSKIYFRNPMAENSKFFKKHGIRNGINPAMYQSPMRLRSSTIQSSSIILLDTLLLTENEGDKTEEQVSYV

human 5-HT2A receptor = human 5-HT2A receptor (Homo sapiens, UniProt P28223); experiment: Calcium flux; type: cell-based; conditions: for 5-HT2A %MAX ± SEM: percent of maximal activation by 5-HT, activation at 10 μM for compounds without EC50 value; for 5-HT2A EC50 ± SEM: HEK-293, calcium flux
Chain of human 5-HT2A receptor (P28223 whole entry): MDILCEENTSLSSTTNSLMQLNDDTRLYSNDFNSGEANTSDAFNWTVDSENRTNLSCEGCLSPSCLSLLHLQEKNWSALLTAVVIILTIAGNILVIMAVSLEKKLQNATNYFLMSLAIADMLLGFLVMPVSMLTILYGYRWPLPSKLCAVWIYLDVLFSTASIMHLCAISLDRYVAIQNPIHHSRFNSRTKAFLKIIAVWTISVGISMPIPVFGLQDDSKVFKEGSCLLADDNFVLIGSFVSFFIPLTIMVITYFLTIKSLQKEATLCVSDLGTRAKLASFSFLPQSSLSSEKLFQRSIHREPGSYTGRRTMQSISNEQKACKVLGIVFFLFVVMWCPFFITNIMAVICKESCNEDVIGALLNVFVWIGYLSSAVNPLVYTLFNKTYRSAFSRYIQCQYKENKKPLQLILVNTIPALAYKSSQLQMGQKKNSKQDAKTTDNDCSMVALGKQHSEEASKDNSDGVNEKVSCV

[5] = biological target: T1, human 5-HT2C (INI) receptor (Homo sapiens, UniProt P28335); experiment: Calcium flux; type: cell-based; conditions: for 5-HT2C %MAX ± SEM: percent of maximal activation by 5-HT; for Selectivity 2A/2C / Selectivity 2B/2C: ratio of EC50 values
T1 sequence (P28335 33-458): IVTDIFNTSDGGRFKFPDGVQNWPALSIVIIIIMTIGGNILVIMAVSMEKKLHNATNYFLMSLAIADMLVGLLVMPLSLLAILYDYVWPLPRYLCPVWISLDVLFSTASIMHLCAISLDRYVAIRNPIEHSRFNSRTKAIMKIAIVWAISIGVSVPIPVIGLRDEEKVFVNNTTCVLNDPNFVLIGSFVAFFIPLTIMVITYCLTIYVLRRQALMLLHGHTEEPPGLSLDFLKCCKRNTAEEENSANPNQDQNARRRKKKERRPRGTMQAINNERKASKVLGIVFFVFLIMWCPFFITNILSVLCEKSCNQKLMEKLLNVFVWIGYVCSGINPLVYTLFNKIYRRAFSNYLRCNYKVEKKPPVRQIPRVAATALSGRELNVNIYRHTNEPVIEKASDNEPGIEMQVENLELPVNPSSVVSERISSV

Chain of hERG (Q12809 whole entry): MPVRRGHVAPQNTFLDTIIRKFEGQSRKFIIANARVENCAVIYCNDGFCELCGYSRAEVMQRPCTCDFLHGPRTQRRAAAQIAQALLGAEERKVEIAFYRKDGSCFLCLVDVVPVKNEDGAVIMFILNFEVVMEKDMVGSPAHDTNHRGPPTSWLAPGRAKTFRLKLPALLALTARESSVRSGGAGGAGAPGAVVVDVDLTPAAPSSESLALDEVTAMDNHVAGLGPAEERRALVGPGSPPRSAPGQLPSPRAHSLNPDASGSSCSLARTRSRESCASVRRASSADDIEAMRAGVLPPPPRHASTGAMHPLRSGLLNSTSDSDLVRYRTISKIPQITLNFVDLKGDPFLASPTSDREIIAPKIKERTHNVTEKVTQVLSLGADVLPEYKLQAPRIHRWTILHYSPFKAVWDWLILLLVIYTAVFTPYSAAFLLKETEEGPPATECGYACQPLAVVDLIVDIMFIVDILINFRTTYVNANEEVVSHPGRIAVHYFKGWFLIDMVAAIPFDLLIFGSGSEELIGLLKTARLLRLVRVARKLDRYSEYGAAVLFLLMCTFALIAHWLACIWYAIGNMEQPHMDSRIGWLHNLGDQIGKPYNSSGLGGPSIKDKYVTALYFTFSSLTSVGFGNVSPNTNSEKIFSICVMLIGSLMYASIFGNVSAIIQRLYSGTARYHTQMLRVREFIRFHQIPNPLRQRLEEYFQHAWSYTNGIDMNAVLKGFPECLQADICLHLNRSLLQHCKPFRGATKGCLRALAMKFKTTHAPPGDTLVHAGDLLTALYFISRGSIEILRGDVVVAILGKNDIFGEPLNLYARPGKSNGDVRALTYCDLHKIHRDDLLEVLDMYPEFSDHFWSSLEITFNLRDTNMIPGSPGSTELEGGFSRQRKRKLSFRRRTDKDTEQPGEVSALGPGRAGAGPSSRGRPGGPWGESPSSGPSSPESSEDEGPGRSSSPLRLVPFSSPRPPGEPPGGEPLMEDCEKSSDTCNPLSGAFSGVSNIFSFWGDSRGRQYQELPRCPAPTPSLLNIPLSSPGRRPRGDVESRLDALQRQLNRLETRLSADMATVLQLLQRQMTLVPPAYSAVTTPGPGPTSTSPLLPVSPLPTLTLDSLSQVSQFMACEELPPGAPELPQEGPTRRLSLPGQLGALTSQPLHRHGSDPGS

## NCC1CC1c1cc(F)ccc1OCC1CC1 (single isomer, unassigned; (+)) [(+)-12, trans-[2-(2 cyclopropylmethyloxy-5-fluorophenyl)cyclopropyl]-methylamine]
animals
  Adverse side effects in animals: no adverse side effects
hERG
  hERG inhibition: no hERG inhibition was detected
[1]
  Microsomal stability, % left: 90.5%
[2]; 5 mg/kg dose level
  Normalization of PCP-disrupted PPI: still effective
[2]; 10 mg/kg
  Normalization of PCP-disrupted PPI: able to normalize PCP-disrupted PPI
[2]; 30 min pre-treatment, dose not stated in legend
  Normalization of PCP-disrupted PPI (Figure 3): effectively normalize PCP-disruption of PPI
[3]
  Microsomal stability, % left: 66%
CYP2D6
  CYP2D6 inhibition: 27.0%
CYP2C9
  CYP2C9 inhibition: 19.6%
CYP3A4; midazolam as substrate
  CYP3A4 inhibition: 21.7%
CYP3A4; testosterone as substrate
  CYP3A4 inhibition: 25.1%

## c1cc2c3c(c1)[C@H]1CCC[C@H]1CN3CCNC2 [3 (Vabicaserin), Vabicaserin]
hERG
  hERG inhibition: no hERG inhibition was detected

## CN1CCN(C2=Nc3cc(Cl)ccc3Nc3ccccc32)CC1 [clozapine]
[4]
  Normalization of PCP-disrupted PPI: robustly normalizes PCP-disrupted PPI

## O=C1Nc2cc(Cl)c(Cl)cc2N2CCNCC12 (centres unmarked) [4 (WAY-161503), WAY-161503]
hERG; quantity not given
  hERG inhibition, concentration value: 3.6 mM
hERG
  hERG inhibition: very modest inhibition
Human 5-HT2B receptor; first screening campaign
  5-HT2B %MAX ± SEM: 92% ± 1.3%
Human 5-HT2B receptor; second screening campaign
  5-HT2B %MAX ± SEM: 86% ± 4.7%
Human 5-HT2A receptor; first screening campaign
  5-HT2A %MAX ± SEM: 80% ± 1.0%
Human 5-HT2A receptor; second screening campaign
  5-HT2A %MAX ± SEM: 79% ± 4.5%
[5]; first screening campaign
  5-HT2C %MAX ± SEM: 97% ± 1.6%
  Selectivity 2A/2C: 70
  Selectivity 2B/2C: 14
[5]; second screening campaign
  5-HT2C %MAX ± SEM: 94% ± 3.6%
  Selectivity 2A/2C: 40
  Selectivity 2B/2C: 11

## c1cc2c3c(c1)c1c(n3CCNC2)CCCC1 [5 (WAY 629), WAY 629]
hERG
  hERG inhibition: no hERG inhibition was detected
Human 5-HT2B receptor; first screening campaign (upper table section), HEK-293, calcium flux
  5-HT2B EC50 ± SEM: NA (NA: Emax ≤ 12%)
Human 5-HT2B receptor; first screening campaign
  5-HT2B %MAX ± SEM: 6% ± 1.3%
Human 5-HT2B receptor; read-out: 5-HT2B EC50, second screening campaign, value in μM
  EC50: > 5 µM
Human 5-HT2B receptor; second screening campaign
  5-HT2B %MAX ± SEM: 17% ± 2.7%
Human 5-HT2A receptor; first screening campaign (upper table section)
  5-HT2A EC50 ± SEM: NA (NA: Emax ≤ 12%)
Human 5-HT2A receptor; first screening campaign
  5-HT2A %MAX ± SEM: 1% ± 0.2%
Human 5-HT2A receptor; second screening campaign (lower table section)
  5-HT2A EC50 ± SEM: NA (NA: Emax ≤ 12%)
Human 5-HT2A receptor; second screening campaign
  5-HT2A %MAX ± SEM: 7% ± 2.0%
[5]; first screening campaign
  5-HT2C %MAX ± SEM: 80% ± 1.1%
[5]; second screening campaign
  5-HT2C %MAX ± SEM: 82% ± 3.5%

## C[C@H]1CNCCc2ccc(Cl)cc21 [2 (Lorcaserin), Lorcaserin]
hERG
  hERG inhibition: no hERG inhibition was detected
Human 5-HT2B receptor; first screening campaign
  5-HT2B %MAX ± SEM: 93% ± 1.2%
